Results on 13 molecules are retold here after PubChem BioAssay (NCI).

Among the test systems are 786-0 renal; ACHN renal; CAKI-1 renal; M14 melanoma; MOLT-4 leukemia; SF-295 CNS; SF-539 CNS; UO-31 renal; OVCAR-3 ovarian.
Test in all cases: NCI anticancer screen, dose series, 48 h

Each structure is given as a SMILES string.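 Step 1: Grow cells in 96-well plates. Step 2: Expose to compound for 48 hours at 5 concentrations. Step 3: Interpolate endpoints linearly; if unreached, use highest concentration. GI50: concentration for 50% inhibition of growth. TGI marks complete inhibition of growth.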 Bounds are passed on as bounds.

On to `C[N+](C)=c1nc(N2CCOCC2)ss1`, for which the TGI with 786-0 renal, in the test on ACHN renal, with CAKI-1 renal, in the test on M14 melanoma, in the test with MOLT-4 leukemia and in the test with SF-295 CNS was more than 100 µM throughout. In addition, the TGI in the test on SF-539 CNS and in the test with UO-31 renal was more than 100 µM throughout.
Consider `CC1(C)OC(COCCOCCCCCO)C(COCCOCCCCCO)O1` (stereo unspecified), for which the TGI with 786-0 renal, in the test on ACHN renal, with CAKI-1 renal, in the test on M14 melanoma, in the test with MOLT-4 leukemia and with OVCAR-3 ovarian was more than 100 µM each time. In addition, the TGI with SF-295 CNS and in the test on UO-31 renal was more than 100 µM throughout.
Consider `Cc1ccccc1NC(=O)C(=O)CC(=O)c1ccc([N+](=O)[O-])cc1`, for which the TGI in the test on 786-0 renal, in the test on ACHN renal, in the test with CAKI-1 renal, in the test on M14 melanoma, in the test on OVCAR-3 ovarian and in the test on SF-295 CNS was more than 100 µM in each case. The TGI in the test with SF-539 CNS and in the test with UO-31 renal was more than 100 µM throughout.
As for `O=[N+]([O-])C1C2C=CC(C2)[C@H]1c1ccc(Cl)cc1Cl` (stereo partly specified), the TGI in the test on 786-0 renal was more than 100 µM; in the test with ACHN renal, more than 100 µM; with MOLT-4 leukemia it was more than 100 µM; with SF-295 CNS, more than 100 µM; in the test on SF-539 CNS, more than 100 µM; with UO-31 renal, 67.2 µM.
For the molecule `c1cnc2[nH]cc(-c3csc(-c4cn(CCCN5CCCCC5)c5ccccc45)n3)c2c1`, the GI50 was 1630 nM in the test on 786-0 renal; 1660 nM in the test with ACHN renal; 1760 nM in the test on M14 melanoma; 1820 nM in the test with MOLT-4 leukemia; 1540 nM in the test with OVCAR-3 ovarian; 1650 nM with SF-295 CNS. For the same molecule, the GI50 with SF-539 CNS was 1680 nM; with UO-31 renal it was 1180 nM. In addition, the TGI with 786-0 renal is 3.06 µM; in the test with ACHN renal, 3.05 µM; in the test with M14 melanoma, 3.45 µM; in the test on MOLT-4 leukemia it was 3.52 µM; in the test on OVCAR-3 ovarian, 2.96 µM; in the test with SF-295 CNS it was 3.18 µM. The TGI in the test with SF-539 CNS was determined as 3.1 µM; in the test on UO-31 renal, 2.5 µM.
For `COc1ccc(CC2=NCCc3cc(OC)c(OC)cc32)cc1Br`, the TGI in the test on 786-0 renal was more than 100 µM; in the test on ACHN renal, more than 100 µM; with CAKI-1 renal it was 59.3 µM; in the test on MOLT-4 leukemia it was 58.6 µM; in the test with SF-295 CNS it was 30.4 µM; with SF-539 CNS it was more than 100 µM. Further, in the test with UO-31 renal, the TGI is more than 100 µM.
As to `COc1nc2c(c(O)c(C)c(=O)n2OC2OC(COC(C)=O)C(OC(C)=O)C(OC(C)=O)C2OC(C)=O)c(=O)n1C` (stereo unspecified), the TGI in the test with 786-0 renal, in the test on ACHN renal, in the test with M14 melanoma, with MOLT-4 leukemia, in the test with SF-295 CNS and in the test on SF-539 CNS was more than 100 µM in each case. Moreover, the TGI in the test on UO-31 renal was more than 100 µM.
With `C[C@@]12CCCC(=O)N1[C@@H](CO)C(c1ccccc1)O2` (stereo partly specified), the TGI in the test with 786-0 renal, in the test with ACHN renal, in the test on CAKI-1 renal, in the test with OVCAR-3 ovarian, in the test with SF-295 CNS and in the test with SF-539 CNS was more than 100 µM throughout.
`CCOC(=O)C[C@@]12CCCNC1(C)CCc1ccccc12` (stereo partly specified): the TGI in the test on 786-0 renal, with ACHN renal, with M14 melanoma, with MOLT-4 leukemia, with OVCAR-3 ovarian and with SF-295 CNS was more than 100 µM throughout. Also, the TGI with SF-539 CNS and with UO-31 renal was more than 100 µM throughout.
In the case of `COc1ccc(C2NCCc3c2[nH]c2ccccc32)cc1` (stereo unspecified), the TGI in the test with 786-0 renal, in the test with ACHN renal, in the test on M14 melanoma, in the test with MOLT-4 leukemia, in the test on OVCAR-3 ovarian and in the test on SF-295 CNS was more than 100 µM throughout. Besides, the TGI in the test with SF-539 CNS and in the test on UO-31 renal was more than 100 µM each time.
Regarding `CC1(C)CC(=O)c2c(oc3cc(O)c(O)cc23)C1`, the TGI is more than 100 µM with 786-0 renal; more than 100 µM in the test on ACHN renal; 76.6 µM with CAKI-1 renal; 53.9 µM in the test with M14 melanoma; more than 100 µM with MOLT-4 leukemia; more than 100 µM with SF-295 CNS. In addition, the TGI in the test with SF-539 CNS and with UO-31 renal was more than 100 µM each time.
As to `COc1ccc2[nH]c3c(=O)[nH]ncc3c2c1`, the TGI with 786-0 renal, in the test with ACHN renal, in the test with M14 melanoma, in the test on MOLT-4 leukemia, in the test on OVCAR-3 ovarian and in the test on SF-295 CNS was more than 100 µM in each case. Further, the TGI in the test on SF-539 CNS and in the test on UO-31 renal was more than 100 µM each time.
As for `CC(=O)OCCC(O[Si](c1ccccc1)(c1ccccc1)C(C)(C)C)C(C)(C)O` (stereo unspecified), the TGI with 786-0 renal was 77.2 µM; in the test with ACHN renal, more than 100 µM; in the test on M14 melanoma, more than 100 µM; in the test with MOLT-4 leukemia, 63 µM; with OVCAR-3 ovarian it was 62.2 µM; in the test on SF-295 CNS, 45.6 µM. In addition, the TGI came to 63.8 µM in the test on SF-539 CNS and 68.7 µM with UO-31 renal.
